Test results reported in patent publication US12391683B2, “Therapeutic compounds and methods” (Actio Biosciences, Inc., priority 2022, dated 2025).

Legend:
Human TRPV4 = Human TRPV4 (Homo sapiens, UniProt Q9HBA0); experiment: TRPV4 calcium flux assay (FLIPR, antagonist mode); assay type: cell-based; design: HiBiT (inferred from the expression read-out); host or cells: HEK293T; details: HEK293T cells transfected with hTRPV4; antagonist mode vs EC80 of TRPV4 agonist; average of at least 3 separate experiments; read-out: Human TRPV4 Ca2+ Assay IC50
Human TRPV4, sequence (Q9HBA0 whole entry): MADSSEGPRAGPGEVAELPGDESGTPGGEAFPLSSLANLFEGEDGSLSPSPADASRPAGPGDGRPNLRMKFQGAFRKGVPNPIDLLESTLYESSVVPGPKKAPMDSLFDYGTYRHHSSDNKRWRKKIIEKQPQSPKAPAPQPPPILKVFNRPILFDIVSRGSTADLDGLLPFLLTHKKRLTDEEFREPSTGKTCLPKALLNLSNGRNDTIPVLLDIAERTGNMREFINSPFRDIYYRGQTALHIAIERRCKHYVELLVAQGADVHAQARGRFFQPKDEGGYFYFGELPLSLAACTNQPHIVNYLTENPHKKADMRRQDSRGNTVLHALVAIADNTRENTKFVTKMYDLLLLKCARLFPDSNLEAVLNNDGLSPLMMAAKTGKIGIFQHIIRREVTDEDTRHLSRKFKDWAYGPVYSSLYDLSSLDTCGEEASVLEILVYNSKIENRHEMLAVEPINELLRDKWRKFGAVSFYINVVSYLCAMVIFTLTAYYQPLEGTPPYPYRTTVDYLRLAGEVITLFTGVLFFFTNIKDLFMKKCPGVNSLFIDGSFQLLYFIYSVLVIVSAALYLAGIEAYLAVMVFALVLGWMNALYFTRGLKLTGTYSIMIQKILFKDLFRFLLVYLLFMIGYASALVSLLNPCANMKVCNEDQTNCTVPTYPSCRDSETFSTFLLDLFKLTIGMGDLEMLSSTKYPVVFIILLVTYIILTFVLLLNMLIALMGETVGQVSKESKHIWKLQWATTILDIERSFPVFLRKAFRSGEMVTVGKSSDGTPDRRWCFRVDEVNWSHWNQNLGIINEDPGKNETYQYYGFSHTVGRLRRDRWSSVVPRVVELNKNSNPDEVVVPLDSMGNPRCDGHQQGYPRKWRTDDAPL
Protocol: Example 23. TRPV4 Calcium Assay Methods
Human embryonic kidney 293T (HEK293T/293T) cells are cultured in complete media (Dulbecco's Modified Eagle Medium (DMEM), containing 10% fetal bovine serum (FBS) and 1× penicillin-streptomycin) in a T-75 tissue culture flask. At 90% confluency, cells are detached using TrypLE™ Express cell dissociation buffer. TrypLE™ Express buffer is neutralized by adding culture media in excess. Cells are gently triturated and counted using trypan blue in a Countess 3 automated cell counter. Cells are transferred to a 50 mL conical tube and spun down at 1000 rotations per minute (RPM) for five minutes in a benchtop centrifuge. Media containing detaching enzyme is aspirated off the pellet, followed by resuspension to the desired concentration of 2×10^6 cells per mL in complete DMEM.
Transfection preparations were scaled using a combination of 6 μg of TRPV4 wild-type or mutant plasmid DNA, 36 μL of Fugene6 transfection reagent, and 1000 μL of OptiMEM media for every 2×10^6 cells needed. The transfection mix is left to incubate for 20 minutes at room temperature. Total seeding mixture (1000 μL 2×10^6 cells, 1000 μL transfection mix previously described, and 1000 μL complete DMEM) for one transfection is combined into a 15 mL conical tube. The cells and transfection plasmid are mixed thoroughly and dispensed into a reservoir. This is plated at 25 μL per well in a black 384, black-well, clear-bottom, tissue-culture treated plate. This yields approximately 16,000 cells per well. Plasmid DNA constructs were designed by Actio Biosciences in conjunction with Genscript, and generated by Genscript, for all hTRPV4 wild-type and hTRPV4 P/LP (ClinVar) mutations (G78W, P82S, T891, P97R, R186Q, R232C, R232P, R237G, R237Q, R237 L, R269C, R269H, R269S, G270V, R271P, F273 L, K276E, E278K, G280S, Y281S, R315G, R315W, R316C, R316H, R316 L, R316S, I331F, D333G, S403T, K403T, K407E, S542P, S542Y, L543R, Y591N, R594C, R594H, R594S, G600E, Y602C, R616Q, F617 L, L618P, V6201, A716S, A716T, L735R, T740I, R775K, W785R, E797D, E797K, P799A, P799R, P799S, P799 L, G800D, K801E, P827H, F471del, N797del). The remaining cells are plated in the same manner, in a 384, white-well, clear-bottom, tissue-culture treated plate for expression and relative cell number determination. Plates are placed in the incubator at 37° C. overnight.
Compounds were brought to 10 mM in DMSO. DMSO concentration was kept constant throughout the dilution of any compound. DMSO negative control and concentration-response curves were nanoliter-spotted via PICO8 automated dispenser at 5× test concentration into a 384w clear polypropylene plate containing 1×HBSS+20 mM HEPES buffer. A predetermined concentration equivalent to the EC80 of TRPV4 agonist on hTRPV4 was prepared at 6× in 1×HBSS+20 mM HEPES and loaded into a separate 384-well v-bottom polypropylene plate.
Approximately 18 hours post-transfection, the cell plates were removed from the incubator and equal volume (25 uL) Calcium 6 dye was gently added. Calcium 6 dye containing probenecid (final 5 mM) was prepared per manufacturer's instructions. Cell plate was returned to the incubator for 1 hour, at 37° C.
FLIPR Penta was programmed to add compound using the following settings • Pipettor Head=384 • Read Mode 1 Excitation Wavelength=470_495 • Read Mode 1 Emission Wavelength=515_575 • Read Mode 1 Exposure=0.1000 • Read Mode 1 Gain=6.50 • Read Mode 1 Excitation Intensity=20 • Volume of addition=12.5 μL • Height=40 μL • Speed=15 μL/second
Raw data was exported and analyzed for maximum signal (RFU) after agonist addition—the average baseline (RFU) in the first 15 seconds per well. Data was plotted in GraphPad Prism to determine EC50 or IC50 of the molecules.

Hepatocytes [1] = experiment: Hepatocytes predicted clearance, human
Hepatocytes [2] = experiment: Hepatocytes predicted clearance, cyno
[3] = human clinical trials, background statement; cited from earlier work
Hepatocytes [4] = experiment: Hepatocytes predicted clearance, mouse
Hepatocytes [5] = experiment: Hepatocytes predicted clearance, dog
[6] = molecular target: recombinant human CYP3A4 enzyme (Homo sapiens, UniProt P08684); experiment: CYP3A4 incubation assay; assay type: in vitro ADME; design: Metabolic Stability in Recombinant Human CYP3A4 + NADPH (% remaining after 25 min): dose or concentration left out as unconfirmed
recombinant human CYP3A4 enzyme, sequence (P08684 whole entry): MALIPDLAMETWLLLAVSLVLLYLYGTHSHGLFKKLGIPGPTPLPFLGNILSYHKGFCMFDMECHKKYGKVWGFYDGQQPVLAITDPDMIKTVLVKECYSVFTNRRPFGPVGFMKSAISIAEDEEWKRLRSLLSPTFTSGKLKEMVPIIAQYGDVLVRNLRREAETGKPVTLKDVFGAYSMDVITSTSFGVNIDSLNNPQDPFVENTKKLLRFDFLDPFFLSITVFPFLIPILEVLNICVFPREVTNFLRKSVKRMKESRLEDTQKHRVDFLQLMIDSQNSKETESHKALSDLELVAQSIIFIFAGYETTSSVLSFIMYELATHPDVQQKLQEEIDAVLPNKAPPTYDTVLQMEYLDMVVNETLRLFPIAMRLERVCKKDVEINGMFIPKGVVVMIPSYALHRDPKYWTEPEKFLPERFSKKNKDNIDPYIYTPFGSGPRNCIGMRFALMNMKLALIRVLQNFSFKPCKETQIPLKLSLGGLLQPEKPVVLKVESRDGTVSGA
Protocol: Example 24. CYP3A4 Incubation Assay
Compounds (final concentration […]) were incubated in 100 mM phosphate buffer containing 100 pmol/mL recombinant human CYP3A4 enzyme for 0, 5, 10, 15 and 25 minutes.
Testosterone was used as positive control. Reaction was initiated by the addition of NADPH (final concentration […]) and carried out at 37° C. The reaction was stopped by the addition of 4 volumes of cold acetonitrile (with 100 nM alprazolam, 200 nM labetalol, 200 nM imipramine and 2 μM ketoprofen as internal standards). Samples were centrifuged at 3,220 g for 40 minutes to precipitate protein. 70 μL supernatant was transferred to the analysis plate containing 110 μL of acetonitrile for LC-MS/MS analysis.
The following table indicates the percentage remaining for the indicated examples after incubation with recombinant Human CYP3A4 after 25 minutes under the same conditions as described for Example […].

Hepatocytes [7] = experiment: Hepatocytes predicted clearance, rat

SMILES	IC50 (Human TRPV4) [nM]	Hepatocytes predicted clearance in human (Hepatocytes [1]) [L/h/kg]	Hepatocytes predicted clearance in cyno (Hepatocytes [2]) [L/h/kg]	efficacy across several human disease indications [3]	Hepatocytes predicted clearance in mouse (Hepatocytes [4]) [L/h/kg]	Hepatocytes predicted clearance in dog (Hepatocytes [5]) [L/h/kg]	CYP3A4 Clint ([6]; human, recombinant enzyme)	Metabolic Stability in Recombinant Human CYP3A4 + NADPH (% remaining after 25 min) ([6]; human, recombinant enzyme, 25 min) [%]	Hepatocytes predicted clearance in rat (Hepatocytes [7]) [L/h/kg]	CYP3A4 Clint ([6]; 100 pmol/mL recombinant human CYP3A4, 37° C., 0-25 min)
CC(C)(O)c1cnc(N2C[C@@]3(CCC[C@](C)(Cn4cnc5ccc(C#N)cc54)C3)OC2=O)cn1 [GSK2798745, reference compound]	10	< 0.01	1.29	failed to show efficacy	2.66	0.43	0.18 μL/min/pmol CYP450	69.6	1.24	
CC(C)(O)c1cnc(N2C[C@@]3(CCC[C@](CF)(Cn4cnc5ccc(C#N)cc54)C3)OC2=O)cn1 (single isomer, unassigned) [Example 7]	11	0.06	0.27		2.59	< 0.01			0.4	<0.07, <0.07 μL/min/pmol CYP450
CC(C)(O)c1cnc(N2C[C@@]3(CCC4(CC4)[C@](C)(Cn4cnc5ccc(C#N)cc54)C3)OC2=O)cn1 (single isomer, unassigned) [Example 6]	8	0.39	7.22		1.47	0.19	<0.07, <0.07 μL/min/pmol CYP450		0.5	
